Test results as given in PMC10412636, “An analysis of interactions between three structurally diverse anthocyanidins, as well as their glucosides, and model biological membranes, albumin, and plasmid DNA” (Scientific Reports, 2023).

Columns and labels:
[1] = DPH probe fluorescence anisotropy in RBCM liposomes; parameters: species or system human; conditions: RBCM, negative = increase in anisotropy
Experimental: (§1) Two types of liposomes were used to study interactions with biological membranes: liposomes mimicking the composition of cancer cell membranes (mimic membrane liposome—MM) and liposomes formed from lipids extracted from human blood erythrocyte membranes (red blood cell membrane liposome—RBCM). […] Both lipids, dissolved in chloroform (MM liposome) and n-decane (RBCM liposome), were evaporated under a nitrogen atmosphere, and then dried in a desiccator for 90 min under a vacuum. The obtained dry lipid film was hydrated in phosphate buffer, pH 7.4, obtaining a concentration of 0.1 mg/ml, and then vortexed for one minute until a homogeneous, milky suspension was observed. The mixture was sonicated (Sonic, Milano, Italia) for 15 min keeping the sample in a bath of ice water, thus providing a cooling temperature of 0 °C. The suspension was then processed (extrusion) through polycarbonate filters with pore diameters of 100 and 200 nm using a Lipex extruder (Evonik). Liposomes, which had been prepared according to this procedure, was used in fluorimetric studies.
(§2) To investigate these properties three fluorescent probes were used: MC540, TMA-DPH, and DPH. MC540 localizes to the outer, hydrophilic part of the membrane, within the region of the glycerol skeleton[44]. Changes in the fluorescence intensity of this probe were formulated as the relative change in intensity to the control as a function of anthocyanins concentration. The TMA-DPH and DPH probes are supposed to locate nearer to the interface and in the hydrophobic region, respectively[45]. The measurement of changes in the anisotropy of the TMA-DPH and DPH probes allowed us to reflect the mobility of the fluorescent probes in the membrane, and therefore to determine the fluidity of the bilayer[46]. Fluorescence anisotropy was calculated using the formula[47]:1 A=I‖-GI⊥/I‖+2GI⊥ where I‖ and I⊥ are the intensity of fluorescence in parallel and perpendicular directions, to the plane of polarization of the excitation wave, respectively. G is an apparatus constant that depends on the emission wavelength.
(§3) Liposomes (the concentration of lipids in the sample was 0.1 mg/ml) were incubated for 30 min with the appropriate probe (dissolved in DMF, 1 µM concentration), and then the tested anthocyanins were added (final concentration of 1 to 30 µM). The control sample consisted of liposomes and a fluorescent probe. Fluorescence was measured on a fluorimeter (Cary Eclipse, Varian, San Diego, USA) at 37 °C. The excitation wavelengths λex and emission wavelengths λem respectively: MC540—λexc = 540 nm, λem = 590 nm; DPH—λexc = 360 nm, λem = 425 nm. nm; TMA-DPH—λexc = 340 nm, λem = 430 nm.

[2] = molecular target: human serum albumin (HSA) (Homo sapiens, UniProt P02768); test: Quenching of natural fluorescence of human serum albumin; assay type: binding; conditions: HSA […] 10^–5 M, 37 °C
Chain of human serum albumin (HSA) (P02768 25-609): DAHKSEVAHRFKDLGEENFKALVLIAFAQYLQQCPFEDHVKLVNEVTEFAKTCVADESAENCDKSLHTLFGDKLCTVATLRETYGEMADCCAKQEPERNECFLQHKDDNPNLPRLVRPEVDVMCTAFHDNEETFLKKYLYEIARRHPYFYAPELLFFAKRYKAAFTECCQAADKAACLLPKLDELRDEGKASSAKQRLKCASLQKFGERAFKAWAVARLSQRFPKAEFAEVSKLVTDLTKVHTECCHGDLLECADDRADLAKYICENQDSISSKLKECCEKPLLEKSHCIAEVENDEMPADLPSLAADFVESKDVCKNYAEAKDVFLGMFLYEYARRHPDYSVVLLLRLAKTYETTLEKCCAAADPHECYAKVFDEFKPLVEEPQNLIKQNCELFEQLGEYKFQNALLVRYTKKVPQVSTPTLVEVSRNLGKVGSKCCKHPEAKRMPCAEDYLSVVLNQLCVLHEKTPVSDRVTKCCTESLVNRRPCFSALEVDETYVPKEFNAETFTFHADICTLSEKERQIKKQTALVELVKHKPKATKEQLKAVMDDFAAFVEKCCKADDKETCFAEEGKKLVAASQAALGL
Experimental: The phenomenon of quenching the natural fluorescence of human serum albumin (HSA) was used to investigate the potential interaction of anthocyanins with this protein. […] Anthocyanins with concentrations ranging from 1 to 30 µM were added to HSA dissolved in phosphate buffer (1.5 × 10^–5 M) and then incubated at 37 °C for 20 min. Emission spectra were performed on a fluorimeter Cary Eclipse (Varian, San Diego, USA) at 37 °C. HSA fluorescence was excited with a wavelength of λ = 280 nm, the emission was measured in the range from 286 to 460 nm, and the fluorescence intensity was read at 345 nm where the emission maximum of HSA was located.
The Stern–Volmer equation was used to thoroughly describe the quenching mechanism of natural fluorescence and to determine the bindings parameters of HSA: anthocyanin complexes:4 F0/F=1+Kqτ0Q=1+KSV[Q] where F0—fluorescence intensity in the absence of anthocyanins (control sample), F—fluorescence intensity in the presence of anthocyanins, KSV—Stern–Volmer quenching constant (KSV = Kq·τ0), [Q]—concentration of quencher (tested compound), Kq—bimolecular quenching constant, τ0—a lifetime of the fluorophore in the absence of quencher the fluorescence lifetime of a biopolymer is calculated as 5 × 10^–9 s[51].
The apparent binding constants (Kb) and the number of binding sites (n) can be calculated using the following equation:5 log(F0-F/F]=logKb+nlog[Q]
F0 and F are the fluorescence intensities before and after the addition of the quencher. From the linear plot of log (F0 − F)/F versus log [Q], the value of Kb was obtained from the intercept.

[3] = MC540 probe fluorescence intensity in MM liposomes; conditions: 37 °C, positive = decrease
Experimental: as §1, §2, §3

pHbApr-1-Neo plasmid DNA = test: TCSPC-FCS of PicoGreen-labelled plasmid DNA with anthocyanins; assay type: binding
Experimental: To evaluate the biological interaction with DNA molecules the anthocyanins were initially dissolved in ETOH (1 mM). […] Mixing of such solutions with the aqueous DNA solutions used in the studies never exceeded 1% concentration ETOH (v/v) in the final solution. The DNA plasmid was labelled by PicoGreen (CPicoGreen/CDNAbp = 0.02)[52]. The pHbApr-1-Neo plasmid (10 kbp and contour length 3.4 µm) was a generous gift from the laboratory of Prof. Maciej Ugorski (Department of Biochemistry and Molecular Biology, Wrocław University of Environmental and Life Sciences Wroclaw, Poland). PicoGreen-labelled DNA samples mixed with the appropriate amount of anthocyanins were left overnight and then measured. The increasing concentration of anthocyanins in the tested samples was expressed as the ratio of the molar concentration of anthocyanins per molar concentration of DNA base pairs in a given sample (comp/bp). The 100 µl samples were measured in Ibidi 8-well chambers. Each point on the graph is a single sample (average of 10 measurements). All measurements were performed at room temperature (25 °C). Time-correlated single-photon counting fluorescence correlation spectroscopy (TCSPC-FCS) was used to study the interaction of plasmid DNA at the single molecule level with all tested anthocyanins. […] Low power of 1uW (at the back aperture of the objective) was chosen to minimize photobleaching and saturation. In the detection plane, a pinhole (50um in diameter) was used and the signal was collected by a single photon avalanche diode (SPAD, Microphoton Devices, Bolzano, Italy). Photon arrival times were stored using fast electronics (Picoharp 300, PicoQuant) in time-tagged time-resolved recording mode. Two independent times were assigned to each detected photon: (1) a time after the beginning of the measurement and (2) a time after the previous laser pulse. The FCS data analysis was done using home-built routines (DevC++, Bloodshed Software and OriginPro70, OriginLab Corporation). The TCSPC data analysis was performed using SymPhoTime software (PicoQuant). Further details of the data evaluation are given elsewhere.

[4] = DPH fluorescence quenching, dissociation constant with RBCM liposome membrane; assay type: binding, human; conditions: 37 °C
Experimental: as §1
(§4) The phenomenon of quenching the fluorescence of the DPH probe by biologically active substances enabled us to evaluate the partition coefficient (Kd, dissociation constant) of anthocyanins with both MM and RBCM liposome membranes. For this purpose, changes in the fluorescence intensity of this probe were checked and the coefficient was calculated using the equation[48]:2 1/F0/F-1=Kd/[liposomes]×1/[anthocyanins]+1/liposomes where F0—fluorescence intensity in the absence of anthocyanins (control sample), F—fluorescence intensity in the presence of anthocyanins, [liposomes]—concentration of liposomes in mg/ml, [anthocyanins]—concentration of anthocyanins tested mg/ml.
as §3

[5] = DPH probe fluorescence anisotropy in MM liposomes; conditions: MM, negative = increase in anisotropy
Experimental: as §1, §2, §3

[6] = MC540 probe fluorescence intensity in RBCM liposomes; parameters: species or system human; conditions: 37 °C, positive = decrease
Experimental: as §1, §2, §3

[7] = DPH fluorescence quenching, dissociation constant with MM liposome membrane; assay type: binding; conditions: 37 °C
Experimental: as §1, §4, §3

[8] = TMA-DPH probe fluorescence anisotropy in RBCM liposomes; parameters: species or system human; conditions: negative = increase in anisotropy
From the text: Two types of liposomes were used to study interactions with biological membranes: liposomes mimicking the composition of cancer cell membranes (mimic membrane liposome—MM) and liposomes formed from lipids extracted from human blood erythrocyte membranes (red blood cell membrane liposome—RBCM). […] The RBCM liposome was according to the methodology described previously[42] with minor modifications[43]. Both lipids, dissolved in chloroform (MM liposome) and n-decane (RBCM liposome), were evaporated under a nitrogen atmosphere, and then dried in a desiccator for 90 min under a vacuum. The obtained dry lipid film was hydrated in phosphate buffer, pH 7.4, obtaining a concentration of 0.1 mg/ml, and then vortexed for one minute until a homogeneous, milky suspension was observed. The mixture was sonicated (Sonic, Milano, Italia) for 15 min keeping the sample in a bath of ice water, thus providing a cooling temperature of 0 °C. The suspension was then processed (extrusion) through polycarbonate filters with pore diameters of 100 and 200 nm using a Lipex extruder (Evonik). Liposomes, which had been prepared according to this procedure, was used in fluorimetric studies.
To investigate these properties three fluorescent probes were used: MC540, TMA-DPH, and DPH. MC540 localizes to the outer, hydrophilic part of the membrane, within the region of the glycerol skeleton[44]. […] The TMA-DPH and DPH probes are supposed to locate nearer to the interface and in the hydrophobic region, respectively[45]. The measurement of changes in the anisotropy of the TMA-DPH and DPH probes allowed us to reflect the mobility of the fluorescent probes in the membrane, and therefore to determine the fluidity of the bilayer[46]. Fluorescence anisotropy was calculated using the formula[47]:1 A=I‖-GI⊥/I‖+2GI⊥ where I‖ and I⊥ are the intensity of fluorescence in parallel and perpendicular directions, to the plane of polarization of the excitation wave, respectively. G is an apparatus constant that depends on the emission wavelength.
as §3

[9] = TMA-DPH probe fluorescence anisotropy in MM liposomes; conditions: negative = increase in anisotropy
Experimental: as §1, §2, §3

[10] = 30 µM, listed as petunidin glucoside

SMILES: COc1cc(-c2[o+]c3cc(O)cc(O)c3cc2OC2OC(CO)C(O)C(O)C2O)ccc1O (stereo not shown) [Pn 3-glc, Peonidin 3-O-glucoside]
- Changes in DPH anisotropy relative to the control ([1]; 1 µM): -5.23±0.04%
- Changes in DPH anisotropy relative to the control ([1]; 5 µM): -2.72±0.08%
- Changes in DPH anisotropy relative to the control ([1]; 10 µM): -2.02±0.05%
- Changes in DPH anisotropy relative to the control ([1]; 20 µM): -0.79±0.03%
- Changes in DPH anisotropy relative to the control ([1]; 30 µM): -0.03±0.002%
- Stern Volmer constant KSV [2]: 11.93 ± 1.61 × 10^3 M^−1
- number of binding sites n [2]: 0.91 ± 0.09
- Changes in MC540 fluorescence intensity relative to the control ([3]; 1 µM): 6.40±0.34%
- Changes in MC540 fluorescence intensity relative to the control ([3]; 5 µM): 10.52±0.67%
- Changes in MC540 fluorescence intensity relative to the control ([3]; 10 µM): 14.98±0.94%
- Changes in MC540 fluorescence intensity relative to the control ([3]; 20 µM): 24.13±1.45%
- Changes in MC540 fluorescence intensity relative to the control ([3]; 30 µM): 35.68±1.88%
- lifetime (LT) (pHbApr-1-Neo plasmid DNA; 0 < comp/bp < 1, decrease from 4.25 ns): about 3.25 ns
- lifetime (LT) (pHbApr-1-Neo plasmid DNA; comp/bp from 1 to 10, minor further decrease): about 2.75 ns
- decrease in the diffusion time (tD) (pHbApr-1-Neo plasmid DNA; tested range of comp/bp from 0 to 10): 2.5 fold
- Kd [4]: 28.2 ± 5.11 µM
- Changes in DPH anisotropy relative to the control ([5]; 1 µM): -7.68±0.11%
- Changes in DPH anisotropy relative to the control ([5]; 5 µM): -6.50±0.15%
- Changes in DPH anisotropy relative to the control ([5]; 10 µM): -6.27±0.08%
- Changes in DPH anisotropy relative to the control ([5]; 20 µM): -3.12±0.03%
- Changes in DPH anisotropy relative to the control ([5]; 30 µM): -0.39±0.01%
- Changes in MC540 fluorescence intensity relative to the control ([6]; 1 µM): 16.40±0.66%
- Changes in MC540 fluorescence intensity relative to the control ([6]; 5 µM): 20.98±1.80%
- Changes in MC540 fluorescence intensity relative to the control ([6]; 10 µM): 29.53±2.47%
- Changes in MC540 fluorescence intensity relative to the control ([6]; 20 µM): 38.00±0.57%
- Changes in MC540 fluorescence intensity relative to the control ([6]; 30 µM): 50.34±2.93%
- Kd [7]: 114 ± 17.2 µM
- Changes in TMA-DPH anisotropy relative to the control ([8]; 1 µM): -2.75±0.12%
- Changes in TMA-DPH anisotropy relative to the control ([8]; 5 µM): -0.59±0.03%
- Changes in TMA-DPH anisotropy relative to the control ([8]; 10 µM): -0.56±0.02%
- Changes in TMA-DPH anisotropy relative to the control ([8]; 20 µM): -0.61±0.03%
- Changes in TMA-DPH anisotropy relative to the control ([8]; 30 µM): 0.65±0.04%
- Changes in TMA-DPH anisotropy relative to the control ([9]; 1 µM): -3.26±0.11%
- Changes in TMA-DPH anisotropy relative to the control ([9]; 5 µM): -0.96±0.03%
- Changes in TMA-DPH anisotropy relative to the control ([9]; 10 µM): 0.69±0.02%
- Changes in TMA-DPH anisotropy relative to the control ([9]; 20 µM): 0.19±0.003%
- Changes in TMA-DPH anisotropy relative to the control ([9]; 30 µM): 1.63±0.05%

SMILES: COc1cc(-c2[o+]c3cc(O)cc(O)c3cc2OC2OC(CO)C(O)C(O)C2O)cc(O)c1O (stereo not shown) [Pt 3-glc, Petunidin 3-O-glucoside]
- Changes in DPH anisotropy relative to the control ([1]; 1 µM): -7.54±0.13%
- Changes in DPH anisotropy relative to the control ([1]; 5 µM): -7.10±0.35%
- Changes in DPH anisotropy relative to the control ([1]; 10 µM): -7.11±0.42%
- Changes in DPH anisotropy relative to the control ([1]; 20 µM): -7.30±0.53%
- Changes in DPH anisotropy relative to the control ([1]; 30 µM): -7.24±0.48%
- Stern Volmer constant KSV [2]: 5.50 ± 0.94 × 10^3 M^−1
- number of binding sites n [2]: 0.92 ± 0.04
- Changes in MC540 fluorescence intensity relative to the control ([3]; 1 µM): 6.95±0.35%
- Changes in MC540 fluorescence intensity relative to the control ([3]; 5 µM): 10.52±0.57%
- Changes in MC540 fluorescence intensity relative to the control ([3]; 10 µM): 17.35±0.69%
- Changes in MC540 fluorescence intensity relative to the control ([3]; 20 µM): 31.49±1.78%
- Changes in MC540 fluorescence intensity relative to the control ([3]; 30 µM): 42.63±0.74%
- Changes in MC540 fluorescence intensity relative to the control [3, 10]: 42.6 ± 0.7%
- decrease in the diffusion time (tD) (pHbApr-1-Neo plasmid DNA; comp/bp = 1, from about 70 ms): ~20 fold
- lifetime (LT) (pHbApr-1-Neo plasmid DNA; comp/bp = 1, plasmid alone 4.25 ns): about 3.0 ns
- Particle Number (PN) (pHbApr-1-Neo plasmid DNA; comp/bp = 1, plasmid alone 5): about 0.7
- diffusion time (tD) (pHbApr-1-Neo plasmid DNA; comp/bp = 1, plasmid alone about 70 ms): 3.5 ms
- Kd [4]: 46.9 ± 6.8 µM
- Changes in DPH anisotropy relative to the control ([5]; 1 µM): -5.67±0.28%
- Changes in DPH anisotropy relative to the control ([5]; 5 µM): -9.84±0.13%
- Changes in DPH anisotropy relative to the control ([5]; 10 µM): -9.71±0.15%
- Changes in DPH anisotropy relative to the control ([5]; 20 µM): -7.55±0.12%
- Changes in DPH anisotropy relative to the control ([5]; 30 µM): -6.11±0.03%
- Changes in MC540 fluorescence intensity relative to the control ([6]; 1 µM): 13.68±0.65%
- Changes in MC540 fluorescence intensity relative to the control ([6]; 10 µM): 28.28±3.62%
- Changes in MC540 fluorescence intensity relative to the control ([6]; 20 µM): 41.75±7.08%
- Changes in MC540 fluorescence intensity relative to the control ([6]; 30 µM): 58.91±14.03%
- Changes in MC540 fluorescence intensity relative to the control [6, 10]: 58.9 ± 14.0%
- Kd [7]: 29.3 ± 5.43 µM
- Changes in TMA-DPH anisotropy relative to the control ([8]; 1 µM): -2.24±0.09%
- Changes in TMA-DPH anisotropy relative to the control ([8]; 5 µM): -0.99±0.03%
- Changes in TMA-DPH anisotropy relative to the control ([8]; 10 µM): 1.63±0.07%
- Changes in TMA-DPH anisotropy relative to the control ([8]; 20 µM): -0.47±0.02%
- Changes in TMA-DPH anisotropy relative to the control ([8]; 30 µM): 3.60±0.11%
- Changes in TMA-DPH anisotropy relative to the control ([9]; 1 µM): -3.47±0.16%
- Changes in TMA-DPH anisotropy relative to the control ([9]; 5 µM): -2.18±0.02%
- Changes in TMA-DPH anisotropy relative to the control ([9]; 10 µM): -2.04±0.07%
- Changes in TMA-DPH anisotropy relative to the control ([9]; 20 µM): 0.91±0.03%
- Changes in TMA-DPH anisotropy relative to the control ([9]; 30 µM): -2.20±0.06%
